The target of data set [1] is hH2R. As to conditions: [125I]-iodoaminopotentidine, re-calculated from published Ki; cited from earlier work.
Data set [2] addresses T1, hH2R-Gsαs fusion protein (Homo sapiens, UniProt P25021+P63092).
T1 construct: made in house; host or cells: Sf9 insect cells (recombinant baculovirus), membrane preparation
Conditions: [3H]UR-DE257; cited from earlier work.

Data set [3] has as its target T2, NLuc-hH2R (Homo sapiens, UniProt P25021).
T2 construct: membrane signal peptide of the murine 5HT3A receptor (N); expressed in transfected cells
In words: BRET-based competition binding with fluorescent ligand 8. Conditions: competition with 8 (c = 50 nM), live HEK293T cells stably expressing NLuc-hH2R, 60 min; mean ± SEM; read-out: pKi (NanoBRET) (converted). As for the experimental part: (§1) KG, Wertheim, Germany). The cells were then incubated at 37 °C in a humidified atmosphere (no additional CO2) overnight. […] After 60 min incubation time at 27 °C, 10 μL of the substrate furimazine, which was diluted according to manufacturer's protocol beforehand, were added. After 5 min of equilibration time at 27 °C, the measurement was started. […] After addition of the diluted substrate, the plate was placed inside the reader for 5 min to equilibrate. […] Dissociation experiments were conducted in wells, which have been preincubated with 8 as described above for association experiments. […] All measurements were performed on a TECAN InfiniteLumi plate reader (TECAN, Grödig, Austria) at 27 °C using the Blue2 NB (460 nm ± 35 nm, bandpass) and the Red NB (> 610 nm, longpass) filter combination with an integration time of 100 ms. For the kinetic experiments, integration time was increased to 500 ms for both channels to reduce noise. BRET ratios were calculated by dividing the acceptor emission (red NB) by the donor luminescence (Blue2 NB). For all BRET binding experiments, specific binding was calculated by subtracting non-specific binding from total binding yielding the “corrected BRET ratio”. For saturation binding experiments, total and non-specific binding were fitted simultaneously using the “one-site total and nonspecific binding” fit. Specific binding was fitted accordingly applying the “one-site specific binding” fit. […] The normalized competition binding curves were then fitted with a four-parameter logistic fit yielding pIC50-values. These were transformed into pKi-values using the Cheng-Prusoff equation[38].
(BRET reads energy transfer from a luciferase to a nearby fluorophore.)

Data set [4] has as its target T3, hH2R-Gsαs fusion protein (Homo sapiens, UniProt P25021).
T3 construct: made in house; host or cells: Sf9 insect cells (recombinant baculovirus), membrane preparation
In words: Radioligand saturation binding on Sf9 membranes. Conditions: membranes of Sf9 insect cells expressing hH2R-Gsαs. As for the experimental part: (§2) All data analysis was performed using Prism 5.0c (GraphPad, San Diego, CA, USA).
Supplementary Figure S7. […] Saturation binding assay was performed as previously described.^3

The target in data set [5] is T3, hH2R-Gsαs fusion protein. The data set can be described thus: Radioligand competition binding with [3H]UR-DE257 on Sf9 membranes. Conditions: read-out: pKi (RL comp. binding Sf9 membranes) (converted). How it is done:
as §2

Data set [6] has as its target T4, hH2R (Homo sapiens, UniProt P25021). The data set can be described thus: β-Arrestin2 recruitment assay (split-luciferase complementation), HEK293T-ARRB2-H2R cells. The format is cell-based. Also noted: expressed in transfected cells; host or cells: HEK293T-ARRB2-H2R cell line. Conditions: read-out: pKb (β-arrestin2 recruitment) (converted). A general note: Recruitment of arrestin is a read-out of receptor activation apart from second messengers.
Description: One day prior to the experiment, the cells were detached with trypsin/EDTA (0.05%/0.2%) and were centrifuged (500 x g, 5 min). The cells were resuspended in Leibovitz’ L-15 medium + 5% FCS + 10 mM HEPES and the density of the suspension was adjusted to 1.25 x 10^6 cells/mL (agonist mode) or 1.4 x 10^6 cells/mL (antagonist mode). 80 µL (agonist mode) or 70 µL (antagonist mode) of the cell suspension were seeded in white, tissue culture-treated, flat bottom 96-well microtiter plates (Brand, Wertheim, Germany). The cells were incubated at 37 °C overnight in a water saturated atmosphere w/o additional CO2. […] In the meantime, serial dilutions of the tested compounds (10-fold concentrated with respect to the final concentration) were prepared in L-15 + 10 mM HEPES and pre-warmed to 37 °C. After the baseline-read, the dilutions of the test compounds (10 µL/well) were transferred to the 96-well plate. […] For the determination of antagonism, the dilutions of the test compounds (10 µL/well) were transferred to the 96-well plate directly after the addition of D-luciferin (as described above) and the baseline was recorded like in the agonist mode. […] Normalized data were fitted applying a four-parameter logistic fit yielding pIC50 values, which were then transformed into pKb values using the Cheng-Prusoff equation.^8 All data analysis was performed using Prism 5.0c (GraphPad, San Diego, CA, USA).

For data set [7], the target named is T2, NLuc-hH2R. The data set can be described thus: NanoBRET saturation binding assay. How it is done:
as §1

Data set [8] in a line: Chemical stability in binding buffer (HPLC). The format is physicochemical. How it is done: The chemical stability of the fluorescent H2R ligands UR-KAT478 (8), UR-KAT515 (9) and UR-KAT514 (10) was investigated at physiological pH (7.4) in binding buffer (12.5 mM MgCl2, 1 mM EDTA and 75 mM Tris/HCl, pH 7.4)^1 and in case of UR-KAT514 (10) as well in a mixture of DMSO/binding buffer 1:1. Incubation was started by addition of 27.5 μL of a 2.5 mM solution of the respective compounds in DMSO/Millipore H2O 1:1, which were freshly prepared from a 5 mM stock solution in DMSO, to 522.5 μL of binding buffer or DMSO/binding buffer 1:1 yielding a final concentration of […]. The samples were shaken for up to 4 days at 700 rpm. After indicated time periods, a 70 μL aliquot was taken and diluted with 70 µL of a mixture of MeCN, Millipore H2O and 10% aqueous TFA (60:90:1). Prior to HPLC analysis, the samples were stored at -20 °C. 50 μL of the resulting solution were analyzed by HPLC as described in the experimental section. The absorption was detected at 220 nm. The blank HPLC run was performed under identical conditions without any ligand.

Data set [9] concerns the target T4, hH2R. In words: Flow cytometric saturation binding assay with HEK293T-hH2R-qs5-HA cells. As to conditions: saturation binding at HEK293T-hH2R-qs5-HA cells; mean ± SEM; read-out: pKd (Flow cytometry) (converted). Also on record: expressed in transfected cells; host or cells: HEK293T-hH2R-qs5-HA cells. How it is done: All flow cytometric measurements were performed with FACSCanto™II flow cytometer (Becton Dickinson, Heidelberg, Germany), equipped with an argon laser (488 nm) and a red diode laser (633 nm) (settings: FCS: A, log, 0 V; SSC: A, log, 252 V; ACP: A,H,W, log, 350 V or PerCP-Cy5-5: A,H, log 485 V or PE: A,H,W, log, 420 V) according to general protocols with minor modifications.^4,5 All measurements were performed in duplicate and recorded either in channel PerCP-Cy5 (Py-1, excitation: 488 nm), APC (BODIPY 630/650, excitation: 633 nm) or PE (TAMRA, excitation: 488 nm). Data acquisition was stopped after 10,000 gated events.
Cell culture and preparation of HEK293T-hH2R-qs5-HA cells was performed as described.^4 Briefly, cells were maintained in 25 or 175 cm^2 flasks (Sarstedt, Nümbrecht, Germany) in a humidified atmosphere (95% air, 5% CO2) at 37 °C using Dulbecco`s Modified Eagle`s Medium supplemented with 2 mM L-glutamine (Sigma-Aldrich, Munich, Germany), 10% FCS, 400 µg/mL geneticin (G418), and 100 µg/mL hygromycin B (AG Scientific, San Diego, CA, USA). On the day of the experiment, cells were detached with trypsin/EDTA (0.05%/0.2%) and centrifuged (500 x g, 5 min). The cell pellet was resuspended in Leibovitz’ L-15 medium containing 1% FCS and the cell density was adjusted to 1 x 10^6 cells/mL. The serial dilutions of the tested fluorescent ligands and famotidine (competitor, for non-specific binding) were prepared in DMSO/H2O (1:1, v/v). All incubation steps were performed in 96-well Primaria^TM plates (CORNING, NY, USA). 200 µL of the adjusted cell suspension were either added to 2 µL of DMSO/H2O (1:1, v/v, total binding) or to 2 µl of famotidine (300-fold excess over the fluorescent ligand, non-specific binding). Incubation was started by addition of 2 µL of the respective fluorescent ligand in different concentrations (100-fold concentrated with respect to the final concentration). […] Samples were transferred to 5 mL polystyrol FACS tubes (Sarstedt, Nümbrecht, Germany) and measured immediately. […]
(A flow cytometer gives signals particle by particle.)

[10] abbreviates: representative NanoBRET saturation isotherm, result from single experiment, HEK293T NLuc-hH2R, read-out: Kd* (single experiment).
Setting [11] is: saturation binding, live HEK293T cells stably expressing NLuc-hH2R, mean ± SEM, read-out: pKd (NanoBRET) (converted).

Where two headings read alike, the source gives them in different places.

T3 sequence (P25021+P63092 fused): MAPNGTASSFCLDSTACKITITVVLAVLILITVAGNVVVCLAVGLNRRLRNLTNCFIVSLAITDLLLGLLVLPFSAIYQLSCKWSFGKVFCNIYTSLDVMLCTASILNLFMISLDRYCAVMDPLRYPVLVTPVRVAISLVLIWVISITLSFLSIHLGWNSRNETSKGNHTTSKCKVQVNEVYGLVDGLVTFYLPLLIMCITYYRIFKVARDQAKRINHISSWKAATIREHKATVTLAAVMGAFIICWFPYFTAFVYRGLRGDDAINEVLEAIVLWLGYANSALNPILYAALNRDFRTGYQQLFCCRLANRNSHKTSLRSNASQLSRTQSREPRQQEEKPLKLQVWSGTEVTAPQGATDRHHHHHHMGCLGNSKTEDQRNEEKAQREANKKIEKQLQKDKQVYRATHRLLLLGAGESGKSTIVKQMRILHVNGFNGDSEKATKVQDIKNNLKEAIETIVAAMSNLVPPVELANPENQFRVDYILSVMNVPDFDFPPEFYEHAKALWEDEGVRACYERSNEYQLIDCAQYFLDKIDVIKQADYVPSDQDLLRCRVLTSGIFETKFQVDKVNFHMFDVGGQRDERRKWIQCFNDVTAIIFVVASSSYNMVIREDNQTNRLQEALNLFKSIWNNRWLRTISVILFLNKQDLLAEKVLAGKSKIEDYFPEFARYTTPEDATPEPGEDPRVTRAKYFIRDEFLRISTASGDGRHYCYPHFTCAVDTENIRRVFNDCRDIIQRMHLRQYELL
T2 sequence (P25021 whole entry): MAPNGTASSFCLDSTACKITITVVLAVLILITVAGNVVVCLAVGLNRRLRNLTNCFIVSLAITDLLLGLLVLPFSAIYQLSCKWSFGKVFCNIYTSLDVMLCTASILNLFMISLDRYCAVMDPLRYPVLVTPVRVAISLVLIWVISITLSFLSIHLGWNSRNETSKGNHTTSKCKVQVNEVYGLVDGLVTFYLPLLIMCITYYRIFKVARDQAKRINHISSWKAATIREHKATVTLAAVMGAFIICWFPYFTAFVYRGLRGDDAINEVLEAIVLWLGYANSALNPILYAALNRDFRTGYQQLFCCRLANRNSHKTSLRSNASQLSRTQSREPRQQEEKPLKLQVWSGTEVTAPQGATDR
T4 sequence (P25021 whole entry): as above
T1 sequence (P25021+P63092 fused): as the sequence (P25021+P63092 fused) above

Take `CN/C(=N/CCSCc1nc[nH]c1C)NC#N` [Compound 2, cimetidine]: the “pKi (RL comp. binding CHO membranes)” value on hH2R [1] was 6.18[32].
For the compound `CNC(=C[N+](=O)[O-])NCCSCc1ccc(CN(C)C)o1` [Compound 3, ranitidine], on hH2R [1], the “pKi (RL comp. binding CHO membranes)” value was 7.07[32].
On to `NC(N)=Nc1nc(CSCCC(N)=NS(N)(=O)=O)cs1` [Compound 4, famotidine], for which, on hH2R-Gsαs fusion protein [2], the “pKi (RL comp. binding Sf9 membranes)” value was 6.87[28]. Besides, at hH2R [1], the “pKi (RL comp. binding CHO membranes)” value is 7.80[32]. Also, the Ki at NLuc-hH2R [3] was 11.5 nM.
On hH2R-Gsαs fusion protein [4], `[3H]CC([3H])C(=O)NCCCCCCNc1c(NCCCOc2cccc(CN3CCCCC3)c2)c(=O)c1=O` (stereo not drawn) [Compound 7] showed a Kd of 11.2 nM.
As for `CN(C)c1ccc2c(-c3ccc(C(=O)NCCCCNc4c(NCCCOc5cccc(CN6CCCCC6)c5)c(=O)c4=O)cc3C(=O)[O-])c3ccc(N(C)C)cc3[o+]c2c1` [Compound 9, 2-(3,6-Bis(dimethylamino)xanthylium-9-yl)-5-((4-((3,4-dioxo-2-((3-(3-(piperidin-1-ylmethyl)phenoxy)propyl)amino)cyclo-but-1-en-1-yl)amino)butyl)carbamoyl)benzoate], the Ki on hH2R-Gsαs fusion protein [5] was 100 nM. In addition, at hH2R [6], the Kb was 66.1 nM. Also, the Kd at NLuc-hH2R [7] (setting [10]) is 143 nM; at NLuc-hH2R [7] (setting [11]), 145 nM; at hH2R [9] it was 562 nM. Also, the “Chemical stability (decomposition)” value in data set [8] (binding buffer pH 7.4, rt, 24 h incubation) is given as “no decomposition”.
Consider `O=C(CCCCCNC(=O)COc1ccc(/C=C/C2=[N+]3C(=Cc4ccc(-c5cccs5)n4[B-]3(F)F)C=C2)cc1)NCCCCNc1c(NCCCOc2cccc(CN3CCCCC3)c2)c(=O)c1=O` [Compound 10], for which the Ki at hH2R-Gsαs fusion protein [5] was 4.47 nM. At hH2R [6], the Kb is 8.13 nM. Besides, the results for the Kd at NLuc-hH2R [7] (setting [10]), at NLuc-hH2R [7] (setting [11]) and at hH2R [9] were 2.99 nM, 2.57 nM and 13.8 nM, respectively. Besides, in data set [8] (BB/DMSO 1:1, rt), the “Adsorption to plastic vessel” value is “reduced adsorption”. In addition, the “Chemical stability (degradation)” value in [8] (binding buffer pH 7.4, rt) is recorded as “no chemical degradation”. Besides, the “HPLC signal of compound after incubation (adsorption to plastic vessel)” value in [8] (binding buffer pH 7.4, rt, after one hour) is “almost no signal”.
On to `CCCCCCCCCCCCNC(=N)NCCCc1sc(N)nc1C` [Compound 11, reference compound], for which the Ki at hH2R-Gsαs fusion protein [5] was 251 nM; on NLuc-hH2R [3] it was 1020 nM.
Take `Cc1nc(N)sc1CCCNC(=N)NCCCCCCCCNC(=N)NCCCc1sc(N)nc1C` [Compound 12, reference compound]: the Ki was 457 nM on hH2R-Gsαs fusion protein [5] and 1320 nM at NLuc-hH2R [3].

The record behind these values is article PMC7414126 (Scientific Reports, 2020).
